According to patent US10392368B2, “Pyrazolo and triazolo bicyclic compounds as JAK kinase inhibitors” (THERAVANCE BIOPHARMA R&D IP, LLC, priority 2017, dated 2019):
Where two headings read alike, the source gives them in different places.

Assays:
JAK1 = molecular target: T1, JAK1 (Homo sapiens, UniProt P23458); experiment: Biochemical JAK1 kinase assay (LanthaScreen); settings: for Ki: read-out: JAK 1 (pKi) (converted)
T1 construct: GST; purchased Life Technologies
How it was run: (§1)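 Compounds were preincubated with the GST-tagged kinase and GFP-labelled STAT1 peptide for one hour before ATP initiated a one-hour reaction at ambient temperature. Phosphorylation was quantified by TR-FRET with a Tb-labelled pTyr701 antibody. Ki values were derived from IC50 using Cheng-Prusoff.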

[1] = tested on: IL-2 stimulated pSTAT5 in Tall-1 T cells; experiment: Cellular JAK3 potency assay: inhibition of IL-2 stimulated pSTAT5 in Tall-1 T cells; format: cell-based, human; settings: for IC50: Homo sapiens, read-out: Tall-1 (pIC50) (converted)
How it was run: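 Tall-1 human T cells were preincubated with compound for 1 h at 37° C, then stimulated with IL-2 (300 ng/ml final) for 30 min. STAT5 phosphorylation in lysates was read by AlphaLisa bead emission, and IC50 from inhibition curves is given as pIC50 (mean±SD).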

JAK3 = molecular target: T2, JAK3 (Homo sapiens, UniProt P52333); experiment: Biochemical JAK3 kinase assay (LanthaScreen); design: GST; purchased Life Technologies
T2 sequence (P52333 1-1124): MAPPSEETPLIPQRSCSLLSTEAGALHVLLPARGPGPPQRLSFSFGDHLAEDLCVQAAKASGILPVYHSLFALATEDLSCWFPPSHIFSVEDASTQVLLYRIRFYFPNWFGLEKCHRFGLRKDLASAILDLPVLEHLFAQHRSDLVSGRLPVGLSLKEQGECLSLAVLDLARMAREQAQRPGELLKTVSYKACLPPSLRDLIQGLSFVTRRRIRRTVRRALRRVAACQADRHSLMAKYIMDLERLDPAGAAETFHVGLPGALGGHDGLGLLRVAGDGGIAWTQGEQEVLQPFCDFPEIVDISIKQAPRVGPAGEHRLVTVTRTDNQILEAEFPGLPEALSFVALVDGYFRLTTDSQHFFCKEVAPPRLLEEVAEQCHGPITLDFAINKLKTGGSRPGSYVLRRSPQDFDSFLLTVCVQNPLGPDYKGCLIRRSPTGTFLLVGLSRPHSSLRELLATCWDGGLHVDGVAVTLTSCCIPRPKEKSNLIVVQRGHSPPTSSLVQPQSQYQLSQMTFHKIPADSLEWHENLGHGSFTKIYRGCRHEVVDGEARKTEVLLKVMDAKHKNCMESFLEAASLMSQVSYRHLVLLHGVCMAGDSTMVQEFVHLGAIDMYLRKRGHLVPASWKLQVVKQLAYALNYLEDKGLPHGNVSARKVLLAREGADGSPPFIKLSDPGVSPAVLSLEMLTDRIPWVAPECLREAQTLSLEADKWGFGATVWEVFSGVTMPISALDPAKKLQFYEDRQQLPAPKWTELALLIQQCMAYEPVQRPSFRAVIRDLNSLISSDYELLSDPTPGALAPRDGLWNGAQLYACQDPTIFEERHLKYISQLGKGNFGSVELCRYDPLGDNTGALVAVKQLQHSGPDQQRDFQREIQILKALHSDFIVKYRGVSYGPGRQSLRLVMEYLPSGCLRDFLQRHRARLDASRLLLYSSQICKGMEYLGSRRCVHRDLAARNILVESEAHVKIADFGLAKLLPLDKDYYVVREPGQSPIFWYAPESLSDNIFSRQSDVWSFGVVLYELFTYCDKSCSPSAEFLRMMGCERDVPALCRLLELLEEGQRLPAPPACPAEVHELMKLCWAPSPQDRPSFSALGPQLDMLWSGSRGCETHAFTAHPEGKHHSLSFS
How it was run: as §1

[2] = IL-2 stimulated pSTAT5 in Tall-1 T cells
[3] = selectivity: difference of pKi JAK3 and pKi JAK1
[4] = IL-2 stimulated pSTAT5, Tall-1 T cells
[5] = selectivity JAK3 over JAK1, difference of pKi
[6] = TALL-1, IL-2 stimulated pSTAT5, Tall-1 T cells
[7] = read-out: JAK 3 (pKi) (converted)
[8] = TALL-1, IL-2 stimulated pSTAT5 in Tall-1 T cells

T1 sequence (P23458 whole entry): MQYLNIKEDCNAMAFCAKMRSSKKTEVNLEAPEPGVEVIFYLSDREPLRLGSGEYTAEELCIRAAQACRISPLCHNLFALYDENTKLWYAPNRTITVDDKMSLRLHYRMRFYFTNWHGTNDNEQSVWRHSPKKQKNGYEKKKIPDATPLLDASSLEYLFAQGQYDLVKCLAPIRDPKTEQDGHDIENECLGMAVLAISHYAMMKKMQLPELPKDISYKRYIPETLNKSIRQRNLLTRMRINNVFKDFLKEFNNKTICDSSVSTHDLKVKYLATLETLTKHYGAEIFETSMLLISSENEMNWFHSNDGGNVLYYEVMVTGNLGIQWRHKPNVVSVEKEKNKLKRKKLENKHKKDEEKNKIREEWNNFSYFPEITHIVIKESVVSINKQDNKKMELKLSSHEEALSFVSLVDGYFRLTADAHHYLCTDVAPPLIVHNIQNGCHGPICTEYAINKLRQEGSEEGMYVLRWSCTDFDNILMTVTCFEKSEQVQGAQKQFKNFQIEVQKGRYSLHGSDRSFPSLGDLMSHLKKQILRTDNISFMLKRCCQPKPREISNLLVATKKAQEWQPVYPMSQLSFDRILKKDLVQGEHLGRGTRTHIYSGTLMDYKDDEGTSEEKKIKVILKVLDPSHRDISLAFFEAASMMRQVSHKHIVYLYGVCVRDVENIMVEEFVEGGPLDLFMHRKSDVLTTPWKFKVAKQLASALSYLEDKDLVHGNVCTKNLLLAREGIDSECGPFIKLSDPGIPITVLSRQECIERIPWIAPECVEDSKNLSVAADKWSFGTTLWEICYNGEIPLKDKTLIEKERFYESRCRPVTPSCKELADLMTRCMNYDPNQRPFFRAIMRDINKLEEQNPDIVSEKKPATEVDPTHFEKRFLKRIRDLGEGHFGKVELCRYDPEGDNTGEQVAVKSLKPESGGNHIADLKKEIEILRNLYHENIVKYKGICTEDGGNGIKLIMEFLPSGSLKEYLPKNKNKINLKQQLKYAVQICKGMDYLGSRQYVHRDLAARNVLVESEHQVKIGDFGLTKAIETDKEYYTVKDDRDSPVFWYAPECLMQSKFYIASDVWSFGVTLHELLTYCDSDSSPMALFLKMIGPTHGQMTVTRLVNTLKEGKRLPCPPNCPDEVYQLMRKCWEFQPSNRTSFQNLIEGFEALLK

| SMILES | JAK 1 (pKi) (JAK1) | Tall-1 (pIC50) [1, 2] | JAK 3 (pKi) (JAK3) | JAK3 (pKi)-JAK1 (pKi) (JAK3; [3]) | Tall-1 (pIC50) [1, 4] | JAK3 (pKi)-JAK1 (pKi) (JAK3; [5]) | Ki (JAK1) [nM] | IC50 [1, 6] [nM] | Ki (JAK3; [7]) [nM] | IC50 [1, 8] [nM] | Ki (JAK3; JAK 3 (pKi)) [nM] |
| --- | --- | --- | --- | --- | --- | --- | --- | --- | --- | --- | --- |
| C=CC(=O)N1CC[C@H](Oc2cc(-c3ccc(O)cc3)nc3[nH]ncc23)C1 [Compound 1-9] | E (a pKi value of 7 or below (Ki of 100 nM or above)) | C (a pIC50 value between 6 and 6.7 (IC50 between 1 μM and 200 nM)) | A (a pKi value≥10 (Ki≤0.1 nM)) | A (a value of 3 or above) |  |  |  |  |  |  |  |
| CN(C)C/C=C/C(=O)N1CCC(COc2cc(-c3ccc(O)c(F)c3)cc3[nH]ncc23)CC1 [Compound 14-4] | D (a pKi value between 7 and 8 (Ki between 100 nM and 10 nM)) |  | B (a pKi value between 9 and 10 (Ki between 1 nM and 0.1 nM)) |  | B (a pIC50 value between 6.7 (included) and 7.5 (IC50 between 200 nM and 32 nM)) | B (a value of 2.3 to 3) |  |  |  |  |  |
| C=CC(=O)N1C2CCC1CC(Oc1cc(-c3ccc(O)c(F)c3)cc3[nH]ncc13)C2 (stereo not drawn) [Compound 10-6] | D (a pKi value between 7 and 8 (Ki between 100 nM and 10 nM)) |  | B (a pKi value between 9 and 10 (Ki between 1 nM and 0.1 nM)) |  | A (a pIC50 value≥7.5 (IC50≤32 nM)) | B (a value of 2.3 to 3) |  |  |  |  |  |
| C=CC(=O)N1CC(COc2cc(-c3ccc(O)c(Cl)c3)cc3[nH]nc(C)c23)C1 [Compound 18-6] |  |  |  |  |  | B (a value of 2.3 to 3) | 10 to 100 | < 31.6 | 0.1 to 1 |  |  |
| COC[C@H]1CCN(C/C=C/C(=O)N2CC(COc3cc(-c4ccc(O)cc4)cc4[nH]ncc34)C2)C1 [Compound 3-134] |  |  |  | A (a value of 3 or above) |  |  | > 100 |  | 0.1 to 1 | 31.6 to 200 |  |
| C=CC(=O)N1CCC(Oc2cc(-c3ccc(O)cc3)nc3[nH]ncc23)CC1 [Compound 6-11] |  |  |  |  |  | A (a value of 3 or above) | > 100 | 31.6 to 200 | < 0.1 |  |  |
| C=CC(=O)N1CC(N(C)c2cc(-c3ccc(O)cc3)cc3[nH]ncc23)C1 [Compound 5-9] | E (a pKi value of 7 or below (Ki of 100 nM or above)) | C (a pIC50 value between 6 and 6.7 (IC50 between 1 μM and 200 nM)) | B (a pKi value between 9 and 10 (Ki between 1 nM and 0.1 nM)) | A (a value of 3 or above) |  |  |  |  |  |  |  |
| CN(C)C/C=C/C(=O)N1CC(COc2cc(-c3ccc(O)c(F)c3F)cc3[nH]ncc23)C1 [Compound 3-82] |  |  |  | B (a value of 2.3 to 3) |  |  | 10 to 100 |  | < 0.1 | < 31.6 |  |
| C=CC(=O)N1CC(C(C)(C)Oc2cc(-c3ccc(O)c(F)c3)cc3[nH]ncc23)C1 [Compound 3-28] | E (a pKi value of 7 or below (Ki of 100 nM or above)) | A (a pIC50 value≥7.5 (IC50≤32 nM)) | A (a pKi value≥10 (Ki≤0.1 nM)) | A (a value of 3 or above) |  |  |  |  |  |  |  |
| C=CC(=O)N1CC[C@H]1C(=O)Nc1cc(-c2ccc(O)cc2)cc2[nH]ncc12 [Compound 12-69] |  |  |  |  |  | A (a value of 3 or above) | > 100 | 31.6 to 200 | < 0.1 |  |  |
| C=CC(=O)N1CCC[C@H](Oc2nc(-c3ccc(O)c(Cl)c3)nc3[nH]ncc23)C1 [Compound 8-12] | E (a pKi value of 7 or below (Ki of 100 nM or above)) |  | B (a pKi value between 9 and 10 (Ki between 1 nM and 0.1 nM)) |  | C (a pIC50 value between 6 and 6.7 (IC50 between 1 μM and 200 nM)) | A (a value of 3 or above) |  |  |  |  |  |
| C=CC(=O)N1CCC[C@H](Sc2cc(-c3ccc(O)cc3)cc3[nH]ncc23)C1 [Compound 12-6] |  |  |  |  |  | B (a value of 2.3 to 3) | 10 to 100 | 31.6 to 200 | 0.1 to 1 |  |  |
| C=CC(=O)N1CC(CC)(COc2cc(-c3ccc(O)c(Cl)c3)cc3[nH]ncc23)C1 [Compound 3-16] | E (a pKi value of 7 or below (Ki of 100 nM or above)) | B (a pIC50 value between 6.7 (included) and 7.5 (IC50 between 200 nM and 32 nM)) | A (a pKi value≥10 (Ki≤0.1 nM)) | A (a value of 3 or above) |  |  |  |  |  |  |  |
| CN(C)C/C=C/C(=O)N1CC[C@H](Oc2cc(-c3ccc(O)cc3)cc3[nH]nc(Cl)c23)C1 [Compound 1-48] | E (a pKi value of 7 or below (Ki of 100 nM or above)) | B (a pIC50 value between 6.7 (included) and 7.5 (IC50 between 200 nM and 32 nM)) | C (a pKi value between 8 and 9 (Ki between 10 nM and 1 nM)) | B (a value of 2.3 to 3) |  |  |  |  |  |  |  |
| C=CC(=O)N1CC[C@H]1COc1cc(-c2ccc(O)cc2)cc2[nH]ncc12 [Compound 12-25] |  |  |  |  |  | B (a value of 2.3 to 3) | > 100 | 200 to 1000 | 0.1 to 1 |  |  |
| C=CC(=O)N1CC(Oc2cc(-c3ccc(O)cc3)nc3[nH]ncc23)C1 [Compound 5-15] | E (a pKi value of 7 or below (Ki of 100 nM or above)) | B (a pIC50 value between 6.7 (included) and 7.5 (IC50 between 200 nM and 32 nM)) | A (a pKi value≥10 (Ki≤0.1 nM)) | A (a value of 3 or above) |  |  |  |  |  |  |  |
| CN(C)C/C=C/C(=O)N1CC[C@@H](Sc2cc(-c3ccc(O)cc3)cc3[nH]ncc23)C1 [Compound 12-3] |  |  |  |  |  | B (a value of 2.3 to 3) | 10 to 100 | 200 to 1000 | 0.1 to 1 |  |  |
| C=CC(=O)N1CC(COc2cc(-c3ccc(O)c(F)c3)cc3[nH]nc(C)c23)C1 [Compound 18-7] |  |  |  |  |  | C (a value of 1.8 to 2.3) | 10 to 100 | < 31.6 | 0.1 to 1 |  |  |
| C=CC(=O)N1CC[C@H](Nc2cc(-c3ccc(O)cc3)cc3[nH]ncc23)C[C@@H]1C [Compound 12-15] |  |  |  |  |  | B (a value of 2.3 to 3) | > 100 | 31.6 to 200 | 0.1 to 1 |  |  |
| C#CC(=O)N1CC[C@H](Oc2cc(-c3ccc(O)cc3)cc3[nH]ncc23)C1 [Compound 17, (S)-1-(3-((6-(4-hydroxyphenyl)-1H-indazol-4-yl)oxy)pyrrolidin-1-yl)prop-2-yn-1-one] |  |  |  | B (a value of 2.3 to 3) |  |  | > 100 |  |  | 200 to 1000 | 0.1 to 1 |
| CN(C)C/C=C/C(=O)N1CCC[C@H](Sc2cc(-c3ccc(O)cc3)cc3[nH]ncc23)C1 [Compound 12-7] |  |  |  |  |  | C (a value of 1.8 to 2.3) | 10 to 100 | 200 to 1000 | 0.1 to 1 |  |  |
